# In patent publication US20180352816A1, “COMPOSITION FOR CROP CARE AND PROTECTION” (ALPHA BIOPESTICIDES LIMITED, priority 2015, published 2018):
# Read-outs that look alike come from different tables or passages of the source.
# Assays:
# P. infestans = test: microbe, parasite or virus in culture; type: cell-based
# B. cinerea = test: Broth microdilution MIC and FIC index (CLSI protocol); type: cell-based
# Z. tritici = test: as above; type: cell-based
# P. syringae = test: as above; type: cell-based; settings: triplicate
# Text: FIC index>1: no synergistic effect.
# E. amylovora = test: as above
# Description: The antimicrobial activity of the crop defence compositions prepared in above Examples was evaluated through in vitro test of antimicrobial susceptibility with broth microdilution method (CLSI protocol—Clinical and Laboratory Standards Institute).
# The Minimum Inhibitory Concentrations (MICs) were determined in multiwell plates.
# The determination of synergy was evaluated by using standard protocol and evaluating in particular the FIC index.
# The value of FIC index was determined through the following formula:
# [1] = E. amylovora, broth microdilution, triplicate
compound,measurement,setting,value
"[Cl-].[Cu+2].[Cu+2].[OH-].[OH-].[OH-] [Copper oxychloride, copper oxychloride]",MIC,"P. infestans; P. infestans, broth microdilution, triplicate",3600 mg/L
copper salicylate,MIC,"B. cinerea; B. cinerea, broth microdilution, triplicate",60 mg/L
same,MIC,"Z. tritici; Z. tritici, broth microdilution, triplicate",235 mg/L
CCCCCCCC/C=C\CCCCCCCC(=O)[O-].[K+] [Potassium oleate],MIC,B. cinerea; Botrytis cinerea,3770 mg/L
same,MIC,Z. tritici; Zymoseptoria tritici,15100 mg/L
same,MIC,"P. syringae; Pseudomonas syringae, read-out: MIC",30 mg/L
same,MIC,P. infestans; Phytophthora infestans,220 mg/L
same,MIC,E. amylovora; Erwinia amylovora,7.3 mg/L
copper anthranilate,MIC,P. syringae,590 mg/L
same,MIC,E. amylovora; [1],290 mg/L
"[Cu+2].[OH-].[OH-] [Copper hydroxide, copper hydroxide]",MIC,E. amylovora; [1],375 mg/L
